# Laboratory results published in patent publication US20220081412A1, “QUINOLINYL-PYRAZINE-CARBOXAMIDE COMPOUNDS AND USES THEREOF” (The Regents of the University of Michigan, priority 2018, published 2022).
# Test system: MIA PaCa-2 cells
# Assay: Bru-seq analysis for nascent RNA synthesis (log2FC of genes, GSEA gene sets)
# Type: cell-based, human
# Details: downregulated gene sets, 4 h, MIA PaCa-2 cells
structure (smiles),measurement,setting,value
"CCN(CC)CCCC(C)Nc1cnc(C(=O)Nc2cc(C)cc3cccnc23)cn1 (stereo not drawn) [J4, 5-((5-(diethylamino)pentan-2-yl)amino)-N-(6-methylquinolin-8-yl)pyrazine-2-carboxamide]",NES TURASHVILI_BREAST_LOBULAR_CARCINOMA_VS_DUCTAL_NORMAL_DN,C2,−1.603
same,NES ZHANG_TLX_TARGETS_36HR_DN,C2,−2.309
same,NES ZHANG_TLX_TARGETS_DN,C2,−1.942
same,NES ZHENG_FOXP3_TARGETS_IN_T_LYMPHOCYTE_DN,C2,−1.893
same,ES GO_BASAL_PART_OF_CELL,GO,−0.526
same,ES GO_CELL_SURFACE_RECEPTOR_SIGNALING_PATHWAY_INVOLVED_IN_CELL_CELL_SIGNALING,GO,−0.570
same,ES GO_CILIUM_ORGANIZATION,GO,−0.331
same,ES GO_CYTOKINE_RECEPTOR_ACTIVITY,GO,−0.488
same,ES GO_DENDRITIC_SHAFT,GO,−0.568
same,ES GO_DNA_DEPENDENT_ATPASE_ACTIVITY,GO,−0.369
same,ES GO_DNA_DEPENDENT_DNA_REPLICATION_MAINTENANCE_OF_FIDELITY,GO,−0.569
same,ES GO_DNA_DOUBLE_STRAND_BREAK_PROCESSING,GO,−0.551
same,ES GO_DNA_HELICASE_ACTIVITY,GO,−0.389
same,ES GO_DNA_REPAIR_COMPLEX,GO,−0.429
same,ES GO_GLUTAMINE_METABOLIC_PROCESS,GO,−0.569
same,ES GO_G_PROTEIN_COUPLED_RECEPTOR_ACTIVITY,GO,−0.476
same,ES GO_HOMOPHILIC_CELL_ADHESION_VIA_PLASMA_MEMBRANE_ADHESION_MOLECULES,GO,−0.581
same,ES GO_MITOTIC_RECOMBINATION,GO,−0.420
same,ES GO_NEGATIVE_REGULATION_OF_EPITHELIAL_CELL_DIFFERENTIATION,GO,−0.597
same,ES GO_PHOSPHOLIPID_TRANSPORTER_ACTIVITY,GO,−0.549
same,ES GO_POTASSIUM_CHANNEL_COMPLEX,GO,−0.536
same,ES GO_RECIPROCAL_DNA_RECOMBINATION,GO,−0.450
same,ES GO_RECOMBINATIONAL_REPAIR,GO,−0.382
same,ES GO_REGULATION_OF_ACUTE_INFLAMMATORY_RESPONSE,GO,−0.521
same,ES GO_REGULATION_OF_MEMBRANE_LIPID_DISTRIBUTION,GO,−0.521
same,ES GO_RESPONSE_TO_X_RAY,GO,−0.501
same,ES GO_SOMATIC_RECOMBINATION_OF_IMMUNOGLOBULIN_GENE_SEGMENTS,GO,−0.498
same,ES GO_SOMITE_DEVELOPMENT,GO,−0.451
same,ES GO_STRAND_DISPLACEMENT,GO,−0.471
same,NES GO_BASAL_PART_OF_CELL,GO,−1.629
same,NES GO_CELL_SURFACE_RECEPTOR_SIGNALING_PATHWAY_INVOLVED_IN_CELL_CELL_SIGNALING,GO,−1.653
same,NES GO_CILIUM_ORGANIZATION,GO,−1.502
same,NES GO_CYTOKINE_RECEPTOR_ACTIVITY,GO,−1.467
same,NES GO_DENDRITIC_SHAFT,GO,−1.746
same,NES GO_DNA_DEPENDENT_ATPASE_ACTIVITY,GO,−1.545
same,NES GO_DNA_DEPENDENT_DNA_REPLICATION_MAINTENANCE_OF_FIDELITY,GO,−1.697
same,NES GO_DNA_DOUBLE_STRAND_BREAK_PROCESSING,GO,−1.613
same,NES GO_DNA_HELICASE_ACTIVITY,GO,−1.504
same,NES GO_DNA_REPAIR_COMPLEX,GO,−1.586
same,NES GO_GLUTAMINE_METABOLIC_PROCESS,GO,−1.616
same,NES GO_G_PROTEIN_COUPLED_RECEPTOR_ACTIVITY,GO,−1.804
same,NES GO_HOMOPHILIC_CELL_ADHESION_VIA_PLASMA_MEMBRANE_ADHESION_MOLECULES,GO,−1.691
same,NES GO_MITOTIC_RECOMBINATION,GO,−1.547
same,NES GO_NEGATIVE_REGULATION_OF_EPITHELIAL_CELL_DIFFERENTIATION,GO,−1.799
same,NES GO_PHOSPHOLIPID_TRANSPORTER_ACTIVITY,GO,−1.692
same,NES GO_POTASSIUM_CHANNEL_COMPLEX,GO,−1.693
same,NES GO_RECIPROCAL_DNA_RECOMBINATION,GO,−1.485
same,NES GO_RECOMBINATIONAL_REPAIR,GO,−1.548
same,NES GO_REGULATION_OF_ACUTE_INFLAMMATORY_RESPONSE,GO,−1.555
same,NES GO_REGULATION_OF_MEMBRANE_LIPID_DISTRIBUTION,GO,−1.498
same,NES GO_RESPONSE_TO_X_RAY,GO,−1.636
same,NES GO_SOMATIC_RECOMBINATION_OF_IMMUNOGLOBULIN_GENE_SEGMENTS,GO,−1.483
same,NES GO_SOMITE_DEVELOPMENT,GO,−1.594
same,NES GO_STRAND_DISPLACEMENT,GO,−1.493
same,ES HALLMARK_KRAS_SIGNALING_DN,HALLMARK,−0.282
same,ES HALLMARK_KRAS_SIGNALING_UP,HALLMARK,−0.230
same,ES HALLMARK_MYC_TARGETS_V1,HALLMARK,−0.172
same,ES HALLMARK_MYC_TARGETS_V2,HALLMARK,−0.178
same,ES HALLMARK_TGF_BETA_SIGNALING,HALLMARK,−0.324
same,NES HALLMARK_KRAS_SIGNALING_DN,HALLMARK,−0.992
same,NES HALLMARK_KRAS_SIGNALING_UP,HALLMARK,−0.965
same,NES HALLMARK_MYC_TARGETS_V1,HALLMARK,−0.831
same,NES HALLMARK_MYC_TARGETS_V2,HALLMARK,−0.691
same,NES HALLMARK_TGF_BETA_SIGNALING,HALLMARK,−1.256
same,ES KEGG_ABC_TRANSPORTERS,KEGG,−0.412
same,ES KEGG_ADHERENS_JUNCTION,KEGG,−0.158
same,ES KEGG_ALANINE_ASPARTATE_AND_GLUTAMATE_METABOLISM,KEGG,−0.250
same,ES KEGG_AMYOTROPHIC_LATERAL_SCLEROSIS_ALS,KEGG,−0.247
same,ES KEGG_AXON_GUIDANCE,KEGG,−0.201
same,ES KEGG_CALCIUM_SIGNALING_PATHWAY,KEGG,−0.324
same,ES KEGG_CELL_ADHESION_MOLECULES_CAMS,KEGG,−0.231
same,ES KEGG_CYTOSOLIC_DNA_SENSING_PATHWAY,KEGG,−0.247
same,ES KEGG_DNA_REPLICATION,KEGG,−0.254
same,ES KEGG_ECM_RECEPTOR_INTERACTION,KEGG,−0.201
same,ES KEGG_HEDGEHOG_SIGNALING_PATHWAY,KEGG,−0.329
same,ES KEGG_HOMOLOGOUS_RECOMBINATION,KEGG,−0.260
same,ES KEGG_MISMATCH_REPAIR,KEGG,−0.375
same,ES KEGG_NEUROACTIVE_LIGAND_RECEPTOR_INTERACTION,KEGG,−0.624
same,ES KEGG_NUCLEOTIDE_EXCISION_REPAIR,KEGG,−0.241
same,ES KEGG_PATHOGENIC_ESCHERICHIA_COLI_INFECTION,KEGG,−0.220
same,ES KEGG_PURINE_METABOLISM,KEGG,−0.285
same,ES KEGG_PYRIMIDINE_METABOLISM,KEGG,−0.256
same,ES KEGG_RIG_I_LIKE_RECEPTOR_SIGNALING_PATHWAY,KEGG,−0.197
same,ES KEGG_RNA_POLYMERASE,KEGG,−0.202
same,ES KEGG_STARCH_AND_SUCROSE_METABOLISM,KEGG,−0.342
same,ES KEGG_TGF_BETA_SIGNALING_PATHWAY,KEGG,−0.336
same,ES KEGG_WNT_SIGNALING_PATHWAY,KEGG,−0.231
same,NES KEGG_ABC_TRANSPORTERS,KEGG,−1.220
same,NES KEGG_ADHERENS_JUNCTION,KEGG,−0.628
same,NES KEGG_ALANINE_ASPARTATE_AND_GLUTAMATE_METABOLISM,KEGG,−0.732
same,NES KEGG_AMYOTROPHIC_LATERAL_SCLEROSIS_ALS,KEGG,−0.838
same,NES KEGG_AXON_GUIDANCE,KEGG,−0.829
same,NES KEGG_CALCIUM_SIGNALING_PATHWAY,KEGG,−1.264
same,NES KEGG_CELL_ADHESION_MOLECULES_CAMS,KEGG,−0.738
same,NES KEGG_CYTOSOLIC_DNA_SENSING_PATHWAY,KEGG,−0.784
same,NES KEGG_DNA_REPLICATION,KEGG,−0.912
same,NES KEGG_ECM_RECEPTOR_INTERACTION,KEGG,−0.655
same,NES KEGG_HEDGEHOG_SIGNALING_PATHWAY,KEGG,−0.982
same,NES KEGG_HOMOLOGOUS_RECOMBINATION,KEGG,−0.820
same,NES KEGG_MISMATCH_REPAIR,KEGG,−1.179
same,NES KEGG_NEUROACTIVE_LIGAND_RECEPTOR_INTERACTION,KEGG,−1.955
same,NES KEGG_NUCLEOTIDE_EXCISION_REPAIR,KEGG,−0.899
same,NES KEGG_PATHOGENIC_ESCHERICHIA_COLI_INFECTION,KEGG,−0.782
same,NES KEGG_PURINE_METABOLISM,KEGG,−1.277
same,NES KEGG_PYRIMIDINE_METABOLISM,KEGG,−1.109
same,NES KEGG_RIG_I_LIKE_RECEPTOR_SIGNALING_PATHWAY,KEGG,−0.724
same,NES KEGG_RNA_POLYMERASE,KEGG,−0.669
same,NES KEGG_STARCH_AND_SUCROSE_METABOLISM,KEGG,−1.006
same,NES KEGG_TGF_BETA_SIGNALING_PATHWAY,KEGG,−1.284
same,NES KEGG_WNT_SIGNALING_PATHWAY,KEGG,−0.992
same,ES BRN2_01,TFBT,−0.247
same,ES CDPCR1_01,TFBT,−0.259
same,ES CDP_01,TFBT,−0.301
same,ES EN1_01,TFBT,−0.276
same,ES FOXJ2_02,TFBT,−0.261
same,ES GGCKCATGS_UNKNOWN,TFBT,−0.441
same,ES HMEF2_Q6,TFBT,−0.266
same,ES HNF1_Q6,TFBT,−0.266
same,ES HOX13_01,TFBT,−0.366
same,ES IK1_01,TFBT,−0.227
same,ES IRF2_01,TFBT,−0.324
same,ES MEF2_02,TFBT,−0.225
same,ES MEF2_Q6_01,TFBT,−0.220
same,ES MEIS1BHOXA9_01,TFBT,−0.320
same,ES NKX3A_01,TFBT,−0.267
same,ES PAX8_01,TFBT,−0.439
